The results in this text go back to ChEMBL document CHEMBL5653631, “A Potent and Selective ULK1 Inhibitor Suppresses Autophagy and Sensitizes Cancer Cells to Nutrient Stress” (iScience, 2018).

The target in assay [1] is T1, Ephrin type-A receptor 1 (Homo sapiens) (UniProt P21709).
T1 sequence (whole entry): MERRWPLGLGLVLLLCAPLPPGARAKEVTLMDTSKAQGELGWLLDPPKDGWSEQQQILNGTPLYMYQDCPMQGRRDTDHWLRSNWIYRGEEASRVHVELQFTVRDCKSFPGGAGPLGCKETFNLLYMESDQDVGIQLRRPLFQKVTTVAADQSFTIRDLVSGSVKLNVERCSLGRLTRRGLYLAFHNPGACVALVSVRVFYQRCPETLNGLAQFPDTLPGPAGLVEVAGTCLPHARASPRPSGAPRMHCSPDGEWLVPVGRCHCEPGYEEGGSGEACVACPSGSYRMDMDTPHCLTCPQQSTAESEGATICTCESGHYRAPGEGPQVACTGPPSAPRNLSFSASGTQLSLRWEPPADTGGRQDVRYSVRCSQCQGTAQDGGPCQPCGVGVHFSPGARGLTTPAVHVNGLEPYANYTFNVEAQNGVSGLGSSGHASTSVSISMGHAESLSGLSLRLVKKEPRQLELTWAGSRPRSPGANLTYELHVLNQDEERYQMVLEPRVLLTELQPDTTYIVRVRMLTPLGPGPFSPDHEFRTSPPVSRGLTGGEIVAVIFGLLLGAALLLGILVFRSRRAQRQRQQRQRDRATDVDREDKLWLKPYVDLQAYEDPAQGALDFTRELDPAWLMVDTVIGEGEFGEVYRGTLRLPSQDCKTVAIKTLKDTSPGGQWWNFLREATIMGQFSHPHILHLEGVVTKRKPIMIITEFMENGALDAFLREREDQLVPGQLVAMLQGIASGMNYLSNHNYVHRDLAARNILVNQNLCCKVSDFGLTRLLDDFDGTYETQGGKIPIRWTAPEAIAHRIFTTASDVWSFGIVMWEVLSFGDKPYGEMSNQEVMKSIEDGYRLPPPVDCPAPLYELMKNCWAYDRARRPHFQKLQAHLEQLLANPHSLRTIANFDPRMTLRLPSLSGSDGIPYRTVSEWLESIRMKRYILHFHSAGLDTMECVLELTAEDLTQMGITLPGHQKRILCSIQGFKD
Put plainly: Inhibition of human recombinant EphA1 at 15 nM related to control ULK1.

Assay [2] concerns the target Activated CDC42 kinase 1 (Homo sapiens) (UniProt Q07912). Put plainly: Inhibition of human recombinant ACK at 15 nM related to control ULK1.
The target of assay [3] is Ribosomal protein S6 kinase alpha-4 (Homo sapiens) (UniProt O75676). Put plainly: Inhibition of human recombinant MSK2 at 15 nM in presence of ATP by radiometric assay relative to control.
Assay [4] concerns the target Myosin light chain kinase 2, skeletal/cardiac muscle (Homo sapiens) (UniProt Q9H1R3). The experiment in a line: Inhibition of human recombinant skMLCK at 15 nM related to control ULK1.
Assay [5] has as its target Cell division cycle 7-related protein kinase (Homo sapiens) (UniProt O00311). The experiment in a line: Inhibition of human recombinant CDC7 at 40 nM related to control ULK1.
Assay [6] concerns the target Mast/stem cell growth factor receptor Kit (Homo sapiens) (UniProt P10721). The experiment in a line: Inhibition of human recombinant KIT at 40 nM in presence of ATP by radiometric assay relative to control.
The target in assay [7] is T2, Myosin-IIIb (Homo sapiens) (UniProt Q8WXR4).
T2 sequence (whole entry): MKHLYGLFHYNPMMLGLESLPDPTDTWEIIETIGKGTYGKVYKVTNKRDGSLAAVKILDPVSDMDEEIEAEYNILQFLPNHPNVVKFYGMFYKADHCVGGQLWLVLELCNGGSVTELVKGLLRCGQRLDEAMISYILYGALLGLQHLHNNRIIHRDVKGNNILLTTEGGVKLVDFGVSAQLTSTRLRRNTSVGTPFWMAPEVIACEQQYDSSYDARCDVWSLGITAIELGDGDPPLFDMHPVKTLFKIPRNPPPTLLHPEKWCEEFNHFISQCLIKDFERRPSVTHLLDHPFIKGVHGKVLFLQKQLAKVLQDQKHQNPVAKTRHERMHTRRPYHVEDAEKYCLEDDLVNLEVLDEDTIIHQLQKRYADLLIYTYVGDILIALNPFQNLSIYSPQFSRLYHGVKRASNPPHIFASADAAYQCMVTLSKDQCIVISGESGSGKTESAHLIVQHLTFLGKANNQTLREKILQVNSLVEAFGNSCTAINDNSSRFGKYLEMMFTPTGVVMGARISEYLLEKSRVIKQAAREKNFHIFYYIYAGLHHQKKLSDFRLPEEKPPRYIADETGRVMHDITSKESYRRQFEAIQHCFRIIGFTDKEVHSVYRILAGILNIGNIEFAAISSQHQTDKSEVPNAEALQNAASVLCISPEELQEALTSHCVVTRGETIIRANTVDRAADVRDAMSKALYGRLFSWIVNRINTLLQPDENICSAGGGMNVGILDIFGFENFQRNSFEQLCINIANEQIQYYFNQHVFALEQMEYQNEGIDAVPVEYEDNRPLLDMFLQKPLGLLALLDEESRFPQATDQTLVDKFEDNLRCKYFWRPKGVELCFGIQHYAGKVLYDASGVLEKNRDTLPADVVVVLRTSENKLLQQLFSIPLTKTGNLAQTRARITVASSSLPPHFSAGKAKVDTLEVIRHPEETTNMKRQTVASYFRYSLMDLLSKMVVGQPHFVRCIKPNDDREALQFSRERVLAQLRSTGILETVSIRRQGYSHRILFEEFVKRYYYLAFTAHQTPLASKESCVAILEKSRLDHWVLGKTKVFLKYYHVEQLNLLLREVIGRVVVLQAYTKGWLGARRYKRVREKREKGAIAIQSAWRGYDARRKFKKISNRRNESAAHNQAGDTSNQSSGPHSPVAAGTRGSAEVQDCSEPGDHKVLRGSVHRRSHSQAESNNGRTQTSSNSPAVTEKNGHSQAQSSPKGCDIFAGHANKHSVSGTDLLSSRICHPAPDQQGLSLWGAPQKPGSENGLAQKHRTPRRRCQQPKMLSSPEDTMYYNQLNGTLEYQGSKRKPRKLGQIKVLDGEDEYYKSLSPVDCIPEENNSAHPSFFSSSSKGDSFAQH
Put plainly: Inhibition of human recombinant MYO3B at 40 nM in presence of ATP by radiometric assay relative to control.

For assay [8], the target named is Serine/threonine-protein kinase 10 (Homo sapiens) (UniProt O94804). Put plainly: Inhibition of human recombinant LOK at 40 nM in presence of ATP by radiometric assay relative to control.
Assay [9] deals with Leucine-rich repeat serine/threonine-protein kinase 2 (Homo sapiens) (UniProt Q5S007). The experiment in a line: Inhibition of human recombinant LRRK2 at 500 nM related to control ULK1.
Sequence of Leucine-rich repeat serine/threonine-protein kinase 2 (Homo sapiens) (Q5S007 whole entry): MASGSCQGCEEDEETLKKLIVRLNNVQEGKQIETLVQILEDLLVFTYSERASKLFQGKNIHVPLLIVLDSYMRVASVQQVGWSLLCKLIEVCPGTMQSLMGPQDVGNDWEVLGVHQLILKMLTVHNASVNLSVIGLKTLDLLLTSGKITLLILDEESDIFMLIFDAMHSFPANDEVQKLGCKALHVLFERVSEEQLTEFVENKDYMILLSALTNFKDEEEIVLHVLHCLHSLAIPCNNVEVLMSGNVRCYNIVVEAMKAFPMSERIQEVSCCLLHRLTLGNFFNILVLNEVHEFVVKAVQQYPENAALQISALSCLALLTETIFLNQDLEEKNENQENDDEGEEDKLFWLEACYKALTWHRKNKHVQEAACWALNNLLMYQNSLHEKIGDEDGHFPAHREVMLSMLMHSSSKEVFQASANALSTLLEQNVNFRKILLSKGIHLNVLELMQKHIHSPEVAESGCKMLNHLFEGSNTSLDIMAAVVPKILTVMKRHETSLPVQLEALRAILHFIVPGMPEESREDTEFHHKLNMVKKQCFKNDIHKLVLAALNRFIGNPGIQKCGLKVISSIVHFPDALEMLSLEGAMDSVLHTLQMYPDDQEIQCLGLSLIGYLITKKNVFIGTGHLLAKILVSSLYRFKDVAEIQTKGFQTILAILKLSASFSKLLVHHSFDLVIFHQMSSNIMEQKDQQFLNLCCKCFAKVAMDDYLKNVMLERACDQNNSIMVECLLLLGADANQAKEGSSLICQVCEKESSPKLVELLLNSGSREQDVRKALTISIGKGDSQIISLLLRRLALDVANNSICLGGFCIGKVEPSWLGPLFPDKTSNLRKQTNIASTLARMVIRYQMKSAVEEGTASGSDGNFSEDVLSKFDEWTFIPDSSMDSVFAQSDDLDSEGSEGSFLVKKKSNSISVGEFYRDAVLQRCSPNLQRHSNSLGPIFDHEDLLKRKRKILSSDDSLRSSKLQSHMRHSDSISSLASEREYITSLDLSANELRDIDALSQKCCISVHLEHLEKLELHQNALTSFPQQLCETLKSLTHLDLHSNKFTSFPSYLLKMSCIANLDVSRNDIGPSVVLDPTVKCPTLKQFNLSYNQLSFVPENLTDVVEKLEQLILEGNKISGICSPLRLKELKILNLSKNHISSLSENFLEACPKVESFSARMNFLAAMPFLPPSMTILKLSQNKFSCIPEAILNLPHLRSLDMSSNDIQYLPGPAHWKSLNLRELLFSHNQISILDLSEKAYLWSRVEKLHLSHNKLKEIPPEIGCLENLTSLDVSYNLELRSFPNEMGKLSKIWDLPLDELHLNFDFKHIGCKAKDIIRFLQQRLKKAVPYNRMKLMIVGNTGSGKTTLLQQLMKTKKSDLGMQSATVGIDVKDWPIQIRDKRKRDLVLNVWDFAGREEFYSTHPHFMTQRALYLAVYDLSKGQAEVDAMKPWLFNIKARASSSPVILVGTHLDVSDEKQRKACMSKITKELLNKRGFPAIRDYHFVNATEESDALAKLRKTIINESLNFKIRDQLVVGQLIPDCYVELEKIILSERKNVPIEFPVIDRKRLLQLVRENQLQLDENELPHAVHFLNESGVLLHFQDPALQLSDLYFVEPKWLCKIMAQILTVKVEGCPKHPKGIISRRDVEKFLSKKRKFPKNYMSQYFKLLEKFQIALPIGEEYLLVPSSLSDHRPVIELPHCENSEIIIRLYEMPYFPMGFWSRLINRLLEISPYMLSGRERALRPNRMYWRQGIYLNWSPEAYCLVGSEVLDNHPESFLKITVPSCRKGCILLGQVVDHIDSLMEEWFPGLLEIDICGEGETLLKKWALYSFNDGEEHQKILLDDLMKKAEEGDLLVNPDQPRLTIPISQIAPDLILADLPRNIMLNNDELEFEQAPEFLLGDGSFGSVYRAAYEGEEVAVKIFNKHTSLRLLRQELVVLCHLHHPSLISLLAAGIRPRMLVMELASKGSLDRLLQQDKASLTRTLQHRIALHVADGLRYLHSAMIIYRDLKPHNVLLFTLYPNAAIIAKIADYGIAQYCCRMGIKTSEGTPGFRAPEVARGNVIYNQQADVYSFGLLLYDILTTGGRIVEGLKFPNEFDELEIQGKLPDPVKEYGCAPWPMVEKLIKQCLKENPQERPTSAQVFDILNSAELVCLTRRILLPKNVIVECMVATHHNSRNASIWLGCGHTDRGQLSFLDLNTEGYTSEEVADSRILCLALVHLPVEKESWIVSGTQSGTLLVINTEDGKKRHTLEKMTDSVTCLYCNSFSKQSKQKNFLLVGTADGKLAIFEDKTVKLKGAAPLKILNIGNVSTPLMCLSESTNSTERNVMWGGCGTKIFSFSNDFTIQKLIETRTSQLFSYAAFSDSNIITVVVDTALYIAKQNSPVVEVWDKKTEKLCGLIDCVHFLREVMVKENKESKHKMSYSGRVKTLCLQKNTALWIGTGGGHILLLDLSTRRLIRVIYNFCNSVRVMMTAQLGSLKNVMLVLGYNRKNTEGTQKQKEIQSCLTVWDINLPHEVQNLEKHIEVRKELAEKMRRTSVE
Assay [10] has as its target Serine/threonine-protein kinase 32C (Homo sapiens) (UniProt Q86UX6). Put plainly: Inhibition of human recombinant YANK3 at 500 nM related to control ULK1.
Assay [11] deals with Serine/threonine-protein kinase PAK 2 (Homo sapiens) (UniProt Q13177). The experiment in a line: Inhibition of human recombinant PAK2 at 500 nM in presence of ATP by radiometric assay relative to control.

Sequence of Myosin light chain kinase 2, skeletal/cardiac muscle (Homo sapiens) (Q9H1R3 whole entry): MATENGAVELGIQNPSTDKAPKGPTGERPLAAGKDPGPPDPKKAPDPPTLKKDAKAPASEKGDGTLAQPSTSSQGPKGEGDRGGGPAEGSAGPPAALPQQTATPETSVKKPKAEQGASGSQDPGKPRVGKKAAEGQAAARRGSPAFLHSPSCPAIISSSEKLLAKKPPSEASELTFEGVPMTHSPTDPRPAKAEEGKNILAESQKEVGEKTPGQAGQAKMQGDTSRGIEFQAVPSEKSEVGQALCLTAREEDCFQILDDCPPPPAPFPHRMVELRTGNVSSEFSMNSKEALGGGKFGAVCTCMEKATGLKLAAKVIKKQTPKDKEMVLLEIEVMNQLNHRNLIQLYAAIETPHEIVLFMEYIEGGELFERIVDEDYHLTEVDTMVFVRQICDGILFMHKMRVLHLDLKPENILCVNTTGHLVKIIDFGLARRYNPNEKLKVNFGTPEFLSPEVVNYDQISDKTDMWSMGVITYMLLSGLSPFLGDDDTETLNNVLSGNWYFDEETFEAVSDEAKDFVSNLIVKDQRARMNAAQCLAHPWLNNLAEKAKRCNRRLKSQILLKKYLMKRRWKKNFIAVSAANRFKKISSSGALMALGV
Sequence of Mast/stem cell growth factor receptor Kit (Homo sapiens) (P10721 whole entry): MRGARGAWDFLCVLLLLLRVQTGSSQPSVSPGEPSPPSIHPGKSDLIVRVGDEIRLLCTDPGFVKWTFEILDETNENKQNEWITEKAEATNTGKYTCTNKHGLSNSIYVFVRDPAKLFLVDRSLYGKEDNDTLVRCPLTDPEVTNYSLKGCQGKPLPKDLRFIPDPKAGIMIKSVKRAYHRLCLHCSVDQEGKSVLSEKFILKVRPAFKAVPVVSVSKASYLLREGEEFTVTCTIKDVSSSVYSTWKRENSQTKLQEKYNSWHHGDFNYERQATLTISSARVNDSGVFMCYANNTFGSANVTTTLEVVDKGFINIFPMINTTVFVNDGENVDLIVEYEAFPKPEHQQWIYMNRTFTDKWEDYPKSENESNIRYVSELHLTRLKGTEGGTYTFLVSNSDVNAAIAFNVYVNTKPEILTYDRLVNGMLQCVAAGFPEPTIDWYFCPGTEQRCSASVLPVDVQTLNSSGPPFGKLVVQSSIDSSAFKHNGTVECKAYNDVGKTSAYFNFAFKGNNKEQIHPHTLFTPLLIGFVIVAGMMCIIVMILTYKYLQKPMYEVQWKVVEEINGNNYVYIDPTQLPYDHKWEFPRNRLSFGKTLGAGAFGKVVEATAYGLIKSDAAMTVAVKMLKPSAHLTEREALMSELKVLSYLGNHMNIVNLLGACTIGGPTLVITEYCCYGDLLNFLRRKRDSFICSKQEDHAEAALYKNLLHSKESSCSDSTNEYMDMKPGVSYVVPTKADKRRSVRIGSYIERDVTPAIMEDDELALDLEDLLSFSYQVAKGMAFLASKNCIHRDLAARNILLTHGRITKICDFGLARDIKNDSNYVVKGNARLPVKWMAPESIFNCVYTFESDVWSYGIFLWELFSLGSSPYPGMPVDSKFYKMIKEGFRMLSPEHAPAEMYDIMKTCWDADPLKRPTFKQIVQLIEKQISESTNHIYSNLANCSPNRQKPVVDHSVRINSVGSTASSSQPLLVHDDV
Sequence of Activated CDC42 kinase 1 (Homo sapiens) (Q07912 whole entry, looked up): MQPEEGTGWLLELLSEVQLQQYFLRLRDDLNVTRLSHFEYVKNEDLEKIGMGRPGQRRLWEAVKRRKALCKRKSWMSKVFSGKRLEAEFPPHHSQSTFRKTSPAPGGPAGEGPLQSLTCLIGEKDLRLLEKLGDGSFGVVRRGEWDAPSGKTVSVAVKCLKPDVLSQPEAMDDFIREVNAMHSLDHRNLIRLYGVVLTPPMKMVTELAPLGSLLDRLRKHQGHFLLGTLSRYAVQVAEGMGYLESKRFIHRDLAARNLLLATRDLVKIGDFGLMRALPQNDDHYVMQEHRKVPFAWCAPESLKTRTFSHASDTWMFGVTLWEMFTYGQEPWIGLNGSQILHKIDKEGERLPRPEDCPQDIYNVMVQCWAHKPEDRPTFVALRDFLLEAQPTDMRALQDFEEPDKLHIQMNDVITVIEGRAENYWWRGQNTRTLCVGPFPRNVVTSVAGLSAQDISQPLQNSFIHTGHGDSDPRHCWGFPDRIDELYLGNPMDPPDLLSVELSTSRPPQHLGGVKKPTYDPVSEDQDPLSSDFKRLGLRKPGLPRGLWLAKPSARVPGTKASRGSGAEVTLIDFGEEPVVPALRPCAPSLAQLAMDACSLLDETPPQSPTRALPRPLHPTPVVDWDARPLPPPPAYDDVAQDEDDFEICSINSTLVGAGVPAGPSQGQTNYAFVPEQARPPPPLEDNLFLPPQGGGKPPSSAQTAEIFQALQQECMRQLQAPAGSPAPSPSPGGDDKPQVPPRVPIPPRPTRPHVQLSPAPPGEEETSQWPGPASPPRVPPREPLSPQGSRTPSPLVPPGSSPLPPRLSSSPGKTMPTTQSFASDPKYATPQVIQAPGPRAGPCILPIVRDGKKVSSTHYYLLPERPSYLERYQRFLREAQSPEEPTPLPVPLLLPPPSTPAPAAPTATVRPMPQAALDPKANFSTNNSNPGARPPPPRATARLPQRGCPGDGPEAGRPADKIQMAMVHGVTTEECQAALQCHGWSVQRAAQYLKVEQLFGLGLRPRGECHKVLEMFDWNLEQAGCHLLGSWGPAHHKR

Usually inhibition stands for the drop in the measured response relative to a control, in per cent. For `CC(C)[C@H](NC(=O)c1cc(-c2cnn3cc(-c4ccc(OCCN5CCCCC5)cc4)cnc23)cs1)C(F)(F)F`, the fold change (FC) in [1] worked out at 0; in assay [2], 0; in assay [4], 0.13. For the same compound, the inhibition in assay [3] came out at 0%.

In the case of `O=C(N[C@@H](C1CC1)C(F)(F)F)c1cc(-c2cnn3cc(-c4ccc(F)cc4)cnc23)cs1`, the fold change (FC) in assay [5] was determined as 0.53. The inhibition in assay [6], in [7] and in assay [8] was 0% in each case.

Consider `CNC(=O)c1ccccc1Oc1nc(Nc2cc(OC)c(OC)c(OC)c2)ncc1Br`, for which the fold change (FC) in [9] was 0.47; in assay [10], 0. Moreover, the inhibition in assay [11] was found to be 14%.
